Here are results for one molecule from article PMC12848304, “Small-molecule inhibitor of C‑terminal HSP90 dimerization modulates autophagy and functions synergistically with mTOR inhibition to kill cisplatin-resistant cancer cells” (Cell Death & Disease, 2025).

One assay addresses T1, HSP90β (Homo sapiens, UniProt P08238).
T1 construct: gene HSP90AB1; C-terminal domain (CTD); with PPID
Kind of assay: TR-FRET HSP90 CTD/PPID interaction assay ([…]). The class given is biochemical.

In the next assay the target is T2, HSP90α CTD (Homo sapiens, UniProt P07900).
T2 construct: gene HSP90AA1; recombinant C-terminal domain (CTD)
T2 sequence (P07900 626-732 limits assumed): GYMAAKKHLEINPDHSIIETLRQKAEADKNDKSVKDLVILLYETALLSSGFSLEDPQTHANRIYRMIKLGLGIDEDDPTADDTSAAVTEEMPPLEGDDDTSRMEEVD
As to the kind of experiment: thermal shift assay (SYPRO orange, […]) with recombinant HSP90α CTD; supported by BS3 cross-linking (loss of CTD dimers) and CETSA. The assay is classed as binding. The note with it: read-out: thermal shift assay (SYPRO orange, 100 μM) with recombinant HSP90α CTD; supporte.

T1 sequence (P08238 553-724 limits assumed): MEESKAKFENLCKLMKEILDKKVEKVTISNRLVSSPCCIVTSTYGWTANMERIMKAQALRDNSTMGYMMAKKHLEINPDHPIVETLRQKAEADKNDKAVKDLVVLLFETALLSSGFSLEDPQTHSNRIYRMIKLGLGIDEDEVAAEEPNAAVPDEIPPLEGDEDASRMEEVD
T1 sequence (Q08752 2-370 partner): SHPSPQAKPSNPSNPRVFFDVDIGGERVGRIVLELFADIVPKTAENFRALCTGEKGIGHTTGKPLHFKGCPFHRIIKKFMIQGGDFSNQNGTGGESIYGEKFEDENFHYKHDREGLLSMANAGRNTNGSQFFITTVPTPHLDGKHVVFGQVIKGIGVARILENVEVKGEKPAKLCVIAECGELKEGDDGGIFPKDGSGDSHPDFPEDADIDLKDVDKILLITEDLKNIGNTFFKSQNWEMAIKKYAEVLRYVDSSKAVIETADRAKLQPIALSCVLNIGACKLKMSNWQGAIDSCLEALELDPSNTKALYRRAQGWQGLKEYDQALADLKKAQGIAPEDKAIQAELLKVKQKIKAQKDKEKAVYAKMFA

Consider `CCC(C)n1c(C(=O)Nc2cnc(C(=O)NC)n(CC(C)C)c2=O)ncc(NC(=O)c2ncc(N)c(=O)n2Cc2ccc(OC)cc2)c1=O` (centres unmarked) [compound 2, VWK147], for which the “TR-FRET HSP90 CTD/PPID interaction assay (1 mM)” value on HSP90β is on record as “VWK147 disrupts the binding of Peptidyl prolyl isomerase D (PPID, CTD-specific co-chaperone) to the CTD of recombinant HSP90β”. The ΔTm at 100 µM at HSP90α CTD is -8.43 ± 2.75 °C.
